# How the values were obtained:
# K-562 = test: panel of 60 human tumor cell lines, growth inhibition (Leukemia); conditions: for GI50 / CC50: Homo sapiens; for GI50: K562; for CC50: K562, read-out: LC50; for Percent Growth / TGI: K-562; for TGI: NCI five dose
# MOLT-4 = test: as above; conditions: Homo sapiens; for GI50: MOLT-4; for CC50: MOLT-4, read-out: LC50; for IC (TGI): MOLT-4, read-out: TGI
# SR = test: as above; conditions: Homo sapiens; for CC50: read-out: LC50; for IC (TGI): read-out: TGI
# LOX IMVI = test: panel of 60 human tumor cell lines, growth inhibition (Melanoma); conditions: Homo sapiens; for GI50: NCI five dose; for CC50: read-out: LC50; for IC (TGI): read-out: TGI
# UACC-257 = test: as above; conditions: for GI50 / CC50: Homo sapiens; for GI50 / Percent Growth / TGI: UACC-257; for CC50: UACC-257, read-out: LC50; for TGI: NCI five dose
# SF-295 = test: panel of 60 human tumor cell lines, growth inhibition (CNS Cancer); conditions: Homo sapiens; for GI50: SF-295; for CC50: SF-295, read-out: LC50; for IC (TGI): SF-295, read-out: TGI
# SF-539 = test: as above; conditions: Homo sapiens; for GI50: SF-539; for CC50: SF-539, read-out: LC50; for IC (TGI): SF-539, read-out: TGI
# U251 = test: as above; conditions: Homo sapiens; for GI50: U-251; for CC50: U-251, read-out: LC50; for IC (TGI): U-251, read-out: TGI
# COLO 205 = test: panel of 60 human tumor cell lines, growth inhibition (Colon Cancer); conditions: Homo sapiens; for GI50: COLO 205; for CC50: COLO 205, read-out: LC50
# HT29 = test: as above; conditions: for Percent Growth: HT29; for GI50 / CC50 / IC (TGI): Homo sapiens; for GI50: HT-29; for CC50: HT-29, read-out: LC50; for IC (TGI): HT-29, read-out: TGI
# SW-620 = test: as above; conditions: Homo sapiens; for GI50: SW-620, SW-620, NCI five dose; for CC50: SW-620, read-out: LC50; for IC (TGI): SW-620, read-out: TGI
# CAKI-1 = test: panel of 60 human tumor cell lines, growth inhibition (Renal Cancer); conditions: Homo sapiens; for GI50: CAKI-1; for CC50: CAKI-1, read-out: LC50; for IC (TGI): CAKI-1, read-out: TGI
# MDA-MB-468 = test: panel of 60 human tumor cell lines, growth inhibition (Breast Cancer); conditions: Homo sapiens; for GI50: MDA-MB-468; for CC50: MDA-MB-468, read-out: LC50; for IC (TGI): MDA-MB-468, read-out: TGI
# OVCAR-3 = test: panel of 60 human tumor cell lines, growth inhibition (Ovarian Cancer); conditions: for GI50 / CC50 / IC (TGI): Homo sapiens; for GI50 / Percent Growth: OVCAR-3; for CC50: OVCAR-3, read-out: LC50; for IC (TGI): OVCAR-3, read-out: TGI
# PC-3 = test: panel of 60 human tumor cell lines, growth inhibition (Prostate Cancer); conditions: Homo sapiens; for GI50: PC-3; for CC50: PC-3, read-out: LC50; for IC (TGI): PC-3, read-out: TGI
# HOP-62 = test: panel of 60 human tumor cell lines, growth inhibition (Non-Small Cell Lung Cancer); conditions: Homo sapiens; for GI50: HOP-62; for CC50: HOP-62, read-out: LC50; for IC (TGI): HOP-62, read-out: TGI
# HOP-92 = test: as above; conditions: Homo sapiens; for GI50: HOP-92, HOP-92, NCI five dose; for CC50: HOP-92, read-out: LC50; for IC (TGI): HOP-92, read-out: TGI
# NCI-H322M = test: as above; conditions: Homo sapiens; for CC50: read-out: LC50; for IC (TGI): read-out: TGI
smiles,measurement,setting,value
C=C1C(=O)O[C@H]2[C@H]1CC/C(COC(=O)OCCN(C)C)=C\CC[C@@]1(C)O[C@@H]21 [JVM 2-35],GI50,K-562,5.55 µM
same,CC50,K-562,> 100 µM
same,Percent Growth,K-562; Log10 Concentration −4.0,−33%
same,Percent Growth,K-562; Log10 Concentration −5.0,30%
same,Percent Growth,K-562; Log10 Concentration −6.0,107%
same,Percent Growth,K-562; Log10 Concentration −7.0,96%
same,Percent Growth,K-562; Log10 Concentration −8.0,101%
same,TGI,K-562,3.00E−5
same,GI50,MOLT-4,5.5 µM
same,CC50,MOLT-4,> 100 µM
same,IC (TGI),MOLT-4,26.1 µM
same,GI50,SR,2.22 µM
same,CC50,SR,> 100 µM
same,IC (TGI),SR,12.1 µM
same,GI50,LOX IMVI,5.16 µM
same,CC50,LOX IMVI,47.5 µM
same,IC (TGI),LOX IMVI,18.2 µM
same,GI50,UACC-257,10.2 µM
same,CC50,UACC-257,55.2 µM
same,Percent Growth,UACC-257; Log10 Concentration −4.0,−85%
same,Percent Growth,UACC-257; Log10 Concentration −5.0,51%
same,Percent Growth,UACC-257; Log10 Concentration −6.0,92%
same,Percent Growth,UACC-257; Log10 Concentration −7.0,86%
same,Percent Growth,UACC-257; Log10 Concentration −8.0,93%
same,TGI,UACC-257,2.38E−5
same,GI50,SF-295,24.7 µM
same,CC50,SF-295,> 100 µM
same,IC (TGI),SF-295,> 100 µM
same,GI50,SF-539,3.86 µM
same,CC50,SF-539,41.3 µM
same,IC (TGI),SF-539,14.7 µM
same,GI50,U251,20.3 µM
same,CC50,U251,> 100 µM
same,IC (TGI),U251,45.2 µM
same,GI50,COLO 205,2.19 µM
same,CC50,COLO 205,18.6 µM
same,IC (TGI),"COLO 205; COLO 205, read-out: TGI",5.46 µM
same,Percent Growth,HT29; Log10 Concentration −4.0,−29%
same,Percent Growth,HT29; Log10 Concentration −5.0,91%
same,Percent Growth,HT29; Log10 Concentration −6.0,98%
same,Percent Growth,HT29; Log10 Concentration −7.0,99%
same,Percent Growth,HT29; Log10 Concentration −8.0,98%
same,GI50,HT29,21.8 µM
same,CC50,HT29,> 100 µM
same,IC (TGI),HT29,57.2 µM
same,GI50,SW-620,3.58 µM
same,CC50,SW-620,50.6 µM
same,IC (TGI),SW-620,15 µM
same,GI50,CAKI-1,3.22 µM
same,CC50,CAKI-1,39.9 µM
same,IC (TGI),CAKI-1,15.6 µM
same,GI50,MDA-MB-468,1.46 µM
same,CC50,MDA-MB-468,50.4 µM
same,IC (TGI),MDA-MB-468,9.2 µM
same,GI50,OVCAR-3,3.31 µM
same,CC50,OVCAR-3,35.3 µM
same,IC (TGI),OVCAR-3,11.5 µM
same,Percent Growth,OVCAR-3; Log10 Concentration −4.0,−96%
same,Percent Growth,OVCAR-3; Log10 Concentration −5.0,6%
same,Percent Growth,OVCAR-3; Log10 Concentration −6.0,97%
same,Percent Growth,OVCAR-3; Log10 Concentration −7.0,106%
same,Percent Growth,OVCAR-3; Log10 Concentration −8.0,98%
same,GI50,PC-3,14 µM
same,CC50,PC-3,64.5 µM
same,IC (TGI),PC-3,30 µM
same,GI50,HOP-62,22.9 µM
same,CC50,HOP-62,> 100 µM
same,IC (TGI),HOP-62,82.1 µM
same,GI50,HOP-92,2.69 µM
same,CC50,HOP-92,35.8 µM
same,IC (TGI),HOP-92,10.1 µM
same,GI50,NCI-H322M,28.7 µM
same,CC50,NCI-H322M,> 100 µM
same,IC (TGI),NCI-H322M,> 100 µM
C=C1C(=O)O[C@H]2[C@H]1CC/C(COC(=O)OC)=C\CC[C@@]1(C)O[C@@H]21 [JVM 2-40],GI50,K-562,4.12 µM
same,CC50,K-562,> 100 µM
same,Percent Growth,K-562; Log10 Concentration −4.0,−31%
same,Percent Growth,K-562; Log10 Concentration −5.0,21%
same,Percent Growth,K-562; Log10 Concentration −6.0,97%
same,Percent Growth,K-562; Log10 Concentration −7.0,99%
same,Percent Growth,K-562; Log10 Concentration −8.0,101%
same,TGI,K-562,2.53E−5
same,GI50,MOLT-4,4.05 µM
same,CC50,MOLT-4,> 100 µM
same,IC (TGI),MOLT-4,21.7 µM
same,GI50,SR,2.24 µM
same,CC50,SR,> 100 µM
same,IC (TGI),SR,12.5 µM
same,GI50,LOX IMVI,3.4 µM
same,CC50,LOX IMVI,43.3 µM
same,IC (TGI),LOX IMVI,13.1 µM
same,GI50,UACC-257,4.98 µM
same,CC50,UACC-257,46.7 µM
same,Percent Growth,UACC-257; Log10 Concentration −4.0,−92%
same,Percent Growth,UACC-257; Log10 Concentration −5.0,36%
same,Percent Growth,UACC-257; Log10 Concentration −6.0,82%
same,Percent Growth,UACC-257; Log10 Concentration −7.0,84%
same,Percent Growth,UACC-257; Log10 Concentration −8.0,90%
same,TGI,UACC-257,1.90E−5
same,GI50,SF-295,13.2 µM
same,CC50,SF-295,59.3 µM
same,IC (TGI),SF-295,28 µM
same,GI50,SF-539,2.56 µM
same,CC50,SF-539,32.7 µM
same,IC (TGI),SF-539,8.79 µM
same,GI50,U251,16.4 µM
same,CC50,U251,55.5 µM
same,IC (TGI),U251,30.2 µM
same,GI50,COLO 205,2.25 µM
same,CC50,COLO 205,25 µM
same,Percent Growth,HT29; Log10 Concentration −4.0,−76%
same,Percent Growth,HT29; Log10 Concentration −5.0,83%
same,Percent Growth,HT29; Log10 Concentration −6.0,99%
same,Percent Growth,HT29; Log10 Concentration −7.0,96%
same,Percent Growth,HT29; Log10 Concentration −8.0,96%
same,GI50,HT29,16.1 µM
same,CC50,HT29,68.6 µM
same,IC (TGI),HT29,33.2 µM
same,GI50,SW-620,2.39 µM
same,CC50,SW-620,47.4 µM
same,IC (TGI),SW-620,11.9 µM
same,GI50,CAKI-1,2.79 µM
same,CC50,CAKI-1,38.8 µM
same,IC (TGI),CAKI-1,15 µM
same,GI50,MDA-MB-468,0.574 µM
same,CC50,MDA-MB-468,19.2 µM
same,IC (TGI),MDA-MB-468,3.09 µM
same,GI50,OVCAR-3,2.63 µM
same,CC50,OVCAR-3,30.6 µM
same,IC (TGI),OVCAR-3,9.31 µM
same,Percent Growth,OVCAR-3; Log10 Concentration −4.0,−100%
same,Percent Growth,OVCAR-3; Log10 Concentration −5.0,−3%
same,Percent Growth,OVCAR-3; Log10 Concentration −6.0,88%
same,Percent Growth,OVCAR-3; Log10 Concentration −7.0,100%
same,Percent Growth,OVCAR-3; Log10 Concentration −8.0,99%
same,GI50,PC-3,12 µM
same,CC50,PC-3,59.4 µM
same,IC (TGI),PC-3,26.7 µM
same,GI50,HOP-62,14.9 µM
same,CC50,HOP-62,62.2 µM
same,IC (TGI),HOP-62,30.4 µM
same,GI50,HOP-92,2.33 µM
same,CC50,HOP-92,30.7 µM
same,IC (TGI),HOP-92,7.99 µM
same,GI50,NCI-H322M,20.9 µM
same,CC50,NCI-H322M,> 100 µM
same,IC (TGI),NCI-H322M,81.5 µM
